Measured values as given in patent US6774235B2, “Trisubstituted 1,3,5-triazine derivatives” (Janssen Pharmaceutica N.V., priority 1998, dated 2004).
Where two headings read alike, the source gives them in different places.

Columns and labels:
[1] = system: HIV-1 (wildtype IIIB); experiment: microbe, parasite or virus in culture; assay type: cell-based; conditions: dose achieving 50% protection of HIV-1 (IIIB) infected MT-4 cells, MTT, OD 540 nm
Protocol: (§1) A rapid, sensitive and automated assay procedure was used for the in vitro evaluation of anti-HIV agents. An HIV-1 (wildtype IIIB) transformed T4-cell line, MT-4, which was previously shown (Koyanagi et al., Int. J Cancer, 36, 445-451, 1985) to be highly susceptible to and permissive for HIV infection, served as the target cell line. Inhibition of the HIV-induced cytopathic effect was used as the end point. […] The percent protection achieved by the compound in HIV-infected cells was calculated by the following formula: [formula]
(§2) whereby (ODT)HIV is the optical density measured with a given concentration of the test compound in HIV-infected cells; (ODC)HIV is the optical density measured for the control untreated HIV-infected cells; (ODC)MOCK is the optical density measured for the control untreated mock-infected cells; all optical density values were determined at 540 nm. […] The ratio of CC50 to IC50 was defined as the selectivity index (SI).

[2] = system: MT-4; experiment: Cytotoxicity in mock-infected MT-4 cells (MTT)
Protocol: as §1, §2

[3] = Cytotoxicity in mock-infected MT-4 cells (MTT); conditions: human, mock-infected MT-4 cells
Protocol: as §1, §2

[4] = Human immunodeficiency virus 1, MT4
[5] = concentration reducing absorbance of mock-infected MT-4 control by 50%, MTT

| Compound | IC50 [1] [nM] | IC50 [1, 4] [nM] | CC50 [2] [nM] | CC50 [3] [nM] | CC50 [2, 5] [nM] |
| --- | --- | --- | --- | --- | --- |
| Cc1ccc(C)c(Oc2nc(N)nc(Nc3ccc(C#N)cc3)n2)c1 [Compound 2, 4-[[4-amino-6-(2,5-dimethylphenoxy)-1,3,5-triazin-2-yl]amino]benzonitrile] |  | 3 |  | 34900 |  |
| N#Cc1ccc(Nc2nc(NO)nc(Nc3c(Cl)cccc3Cl)n2)cc1 [Compound 4, 4-[[[6-(2,6-dichlorophenylamino)-4-(hydroxylamino)]-1,3,5-triazin-2-yl]amino]-benzonitrile] | 2 |  | 8000 |  |  |
| Cc1cccc(C)c1Nc1nc(NO)nc(Nc2ccc(C#N)cc2)n1 [Compound 5] | 2 |  | 7800 |  |  |
| Cc1cccc(C(C)C)c1Nc1nc(N)nc(Nc2ccc(C#N)cc2)n1 [Compound 8] | 165 |  | 9300 |  |  |
| N#Cc1ccc(Nc2nc(N)nc(Nc3c(Cl)cccc3Cl)n2)cc1 [Compound 10] | 3 |  | 6100 |  |  |
| CCc1cccc(CC)c1Nc1nc(N)nc(Nc2ccc(C#N)cc2)n1 [Compound 12] | 21 |  | 30000 |  |  |
| CC(=O)c1ccc(C)cc1Nc1nc(N)nc(Nc2ccc(C#N)cc2)n1 [Compound 13] | 259 |  | > 100000 |  |  |
| CCc1cccc(C)c1Nc1nc(N)nc(Nc2ccc(C#N)cc2)n1 [Compound 16, 4-[[4-amino-6-[(2-ethyl-6-methylphenyl)amino]-1,3,5-triazin-2-yl]amino]benzonitrile] |  | 6 |  | 8100 |  |
| N#Cc1ccc(Nc2nc(N)nc(Nc3c(F)cc(F)cc3Br)n2)cc1 [Compound 17] | 3 |  | 53800 |  |  |
| N#Cc1ccc(Nc2nc(N)nc(Nc3c(Cl)cc(Cl)cc3Cl)n2)cc1 [Compound 18] | 8 |  | 45600 |  |  |
| N#Cc1ccc(Nc2nc(N)nc(Sc3c(Cl)cccc3Cl)n2)cc1 [Compound 19, 4-[[4-amino-6-[(2,6-dichlorophenyl)thio]-1,3,5-triazin-2-yl]amino]benzonitrile] |  | 4 |  | 40600 |  |
| N#Cc1ccc(Nc2nc(NO)nc(Sc3c(Cl)cccc3Cl)n2)cc1 [Compound 20] | 3 |  | 11700 |  |  |
| N#Cc1ccc(Nc2nc(N)nc(NNc3c(Cl)cc(Cl)cc3Cl)n2)cc1 [Compound 21] | 1 |  | 27800 |  |  |
| N#Cc1ccc(Nc2nc(N)nc(NNc3c(Cl)cccc3Cl)n2)cc1 [Compound 22] | 3 |  | > 100000 |  |  |
| Cc1ccc(Cl)c(C)c1Nc1nc(N)nc(Nc2ccc(C#N)cc2)n1 [Compound 28] | 5 |  | 42800 |  |  |
| Cc1ccc(Cl)c(C)c1Nc1nc(NO)nc(Nc2ccc(C#N)cc2)n1 [Compound 31] | 5 |  | 9900 |  |  |
| Cc1cc(Cl)cc(Cl)c1Oc1nc(N)nc(Nc2ccc(C#N)cc2)n1 [Compound 34] | 1 |  | 4800 |  |  |
| N#Cc1ccc(Nc2nc(N)nc(Oc3c(Cl)c(Cl)c(Cl)c(Cl)c3Cl)n2)cc1 [Compound 42] | 33 |  | > 10000 |  |  |

| Compound | IC50 [1] [nM] | IC50 [1, 4] [nM] | CC50 [2] [nM] | CC50 [3] [nM] | CC50 [2, 5] [nM] |
| --- | --- | --- | --- | --- | --- |
| N#Cc1ccc(Nc2nc(N)nc(Oc3c(Cl)cc(F)cc3Cl)n2)cc1 [Compound 45] | 7 |  | 52900 |  |  |
| COc1cccc(OC)c1Oc1nc(N)nc(Nc2ccc(C#N)cc2)n1 [Compound 46] | 31 |  | > 100000 |  |  |
| COc1cc(C#N)ccc1Oc1nc(N)nc(Nc2ccc(C#N)cc2)n1 [Compound 47] | 75 |  | > 100000 |  |  |
| CC(=O)c1cc(F)cc(F)c1Oc1nc(N)nc(Nc2ccc(C#N)cc2)n1 [Compound 49] | 76 |  | > 99900 |  |  |
| Cc1c(Br)c(C)c(Br)c(Oc2nc(N)nc(Nc3ccc(C#N)cc3)n2)c1Br [Compound 50] | 59 |  | 8100 |  |  |
| Cc1ccc(Sc2nc(N)nc(Nc3ccc(C#N)cc3)n2)c(C)c1 [Compound 59] | 2 |  | 48500 |  |  |
| Cc1cc(C)c(Nc2nc(N)nc(Nc3ccc(C#N)cc3)n2)c(C)c1N [Compound 61] | 5 |  | 94600 |  |  |
| CCc1cc(Br)cc(CC)c1Nc1nc(N)nc(Nc2ccc(C#N)cc2)n1 [Compound 64] | 14 |  | 46500 |  |  |
| Cc1cc(Nc2nc(N)nc(Nc3ccc(C#N)cc3)n2)c(Cl)cc1F [Compound 66] | 96 |  | > 99900 |  |  |
| N#Cc1ccc(Nc2nc(N)nc(Nc3c(F)c(F)c(F)c(F)c3F)n2)cc1 [Compound 67] | 111 |  | 45600 |  |  |
| Cc1cc(C)c(N=Nc2nc(N)nc(Nc3ccc(C#N)cc3)n2)c(C)c1 [Compound 69, 4-[[4-amino-6-[(2,4,6-trimethylphenyl)azo]-1,3,5-triazin-2-yl]aamino]benzonitrile] | 65 |  |  |  | > 99900 |
| N#Cc1ccc(Nc2nc(N)nc(Nc3c(Cl)cc(C(F)(F)F)cc3Cl)n2)cc1 [Compound 70] | 3 |  | 15600 |  |  |
| Cc1cc(Br)c(Nc2nc(Nc3ccc(C#N)cc3)nc(Nc3ccc(C#N)cc3)n2)c(Br)c1 [Compound 74, N,-[6-[(2,6-dibromo-4-methylphenyl)amino]-1,3,5-triazine-2,4-diyl]bis[4-amino-benzonitrile]] | 190 |  | 7000 |  |  |
| CC(C)c1cc(Br)c(Nc2nc(Nc3ccc(C#N)cc3)nc(Nc3ccc(C#N)cc3)n2)c(Br)c1 [Compound 75] | 378 |  | 37800 |  |  |
| Cc1cc(N)cc(C)c1Oc1nc(N)nc(Nc2ccc(C#N)cc2)n1 [Compound 78] | 7830 |  | 47000 |  |  |
| N#Cc1ccc(Nc2nc(N)nc(Oc3c(F)c(F)c(O)c(F)c3F)n2)cc1 [Compound 80] | 85500 |  |  |  | > 85500 |
| Cc1c(Cl)cc(N)c(Oc2nc(N)nc(Nc3ccc(C#N)cc3)n2)c1Cl [Compound 81] | 2680 |  | > 99100 |  |  |

The next lines start with results.

| IC50 [1] [nM] | IC50 [1, 4] [nM] | Compound | CC50 [2] [nM] | CC50 [3] [nM] | CC50 [2, 5] [nM] |
| --- | --- | --- | --- | --- | --- |
| 3 |  | N#Cc1ccc(Nc2nc(N)nc(Oc3c(Cl)cccc3Cl)n2)cc1 [Compound 1] | > 20000 |  |  |
|  | 5 | Cc1cccc(Cl)c1Nc1nc(N)nc(Nc2ccc(C#N)cc2)n1 [Compound 7, 4-[[4-amino-6-[(2-chloro-6-methylphenyl)amino]-1,3,5-triazin-2-yl]amino]benzonitrile] |  | 49900 |  |
|  | 1 | Cc1cc(C)c(Nc2nc(NO)nc(Nc3ccc(C#N)cc3)n2)c(C)c1 [Compound 11, 4-[[4-(hydroxyamino)-6-[(2,4,6-trimethylphenyl)amino]-1,3,5-triazin-2-yl]amino]-benzonitrile] |  | 6300 |  |
| 3 |  | Cc1cc(C)c(Nc2nc(N)nc(Nc3ccc(C#N)cc3)n2)c(C)c1Br [Compound 15] | 1700 |  |  |
|  | 1 | N#Cc1ccc(Nc2nc(NO)nc(Nc3c(Cl)cc(Cl)cc3Cl)n2)cc1 [Compound 23, 4-[[4-(hydroxyamino)-6-[(2,4,6-trichlorophenyl)amino]-1,3,5-triazin-2-yl]amino]-benzonitrile] |  | 7600 |  |
| 2 |  | N#Cc1ccc(Nc2nc(N)nc(Oc3c(Cl)cc(Cl)cc3Cl)n2)cc1 [Compound 30] | 63500 |  |  |
| 7 |  | N#Cc1ccc(Nc2nc(N)nc(Oc3ccc(Cl)cc3Cl)n2)cc1 [Compound 38] | > 100000 |  |  |
| > 10000 |  | CC(=O)c1cc(Cl)cc(Cl)c1Oc1nc(N)nc(Nc2ccc(C#N)cc2)n1 [Compound 39] | < 10000 |  |  |
| 9 |  | N#Cc1ccc(Nc2nc(N)nc(Oc3c(Cl)ccc(Cl)c3Cl)n2)cc1 [Compound 43] | 43900 |  |  |
| 5 |  | N#Cc1ccc(Nc2nc(N)nc(Oc3c(F)cc(F)cc3F)n2)cc1 [Compound 44] | > 100000 |  |  |
| 19 |  | Cc1c(Cl)c(C)c(Br)c(Oc2nc(N)nc(Nc3ccc(C#N)cc3)n2)c1Br [Compound 48] | 8700 |  |  |
| 3 |  | Cc1cc(Cl)c(C)c(C)c1Oc1nc(N)nc(Nc2ccc(C#N)cc2)n1 [Compound 52] | 1900 |  |  |
| 17 |  | Cc1c(C)c(Oc2nc(N)nc(Nc3ccc(C#N)cc3)n2)c(Cl)c(C)c1Cl [Compound 53] | 2500 |  |  |
| 4 |  | N#Cc1ccc(Nc2nc(N)nc(Sc3ccc(F)cc3Cl)n2)cc1 [Compound 55] | > 99900 |  |  |
| 5 |  | N#Cc1ccc(Nc2nc(N)nc(Sc3cc(Cl)c(Cl)cc3Cl)n2)cc1 [Compound 56] | 62600 |  |  |
| 15 |  | N#Cc1ccc(Nc2nc(N)nc(Sc3ccc(F)cc3F)n2)cc1 [Compound 57] | > 100000 |  |  |
| 3 |  | Cc1cc(C)c(Sc2nc(N)nc(Nc3ccc(C#N)cc3)n2)c(C)c1 [Compound 58] | 47100 |  |  |
| 3 |  | Cc1cc(I)cc(C)c1Oc1nc(N)nc(Nc2ccc(C#N)cc2)n1 [Compound 60] | 45500 |  |  |
| 3 |  | Cc1ccc(Oc2nc(N)nc(Nc3ccc(C#N)cc3)n2)c(C)c1 [Compound 62] | 51600 |  |  |
| 15 |  | COc1cc(OC)c(Nc2nc(N)nc(Nc3ccc(C#N)cc3)n2)c(OC)c1 [Compound 68] | 63900 |  |  |
| 2 |  | N#Cc1ccc(Nc2nc(N)nc(Nc3c(Br)cc(Br)cc3Br)n2)cc1 [Compound 72] | 6500 |  |  |
| 1490 |  | COC(=O)c1cc(OC)c(OC)c(OC)c1Nc1nc(N)nc(Nc2ccc(C#N)cc2)n1 [Compound 82] | 99600 |  |  |
